From ChEMBL document CHEMBL3763027, “Identification and characterization of potent, selective and metabolically stable IKKβ inhibitor” (Bioorg Med Chem Lett, 2016)

What was measured:
[1] = Metabolic stability in rat plasma assessed as compound remaining after 120 mins; format: ADME, cell-free; details: read-out: Stability
[2] = biological target: Tyrosine-protein kinase ABL1 (Homo sapiens) (UniProt P00519); experiment: Inhibition of Abl1 (unknown origin) at 10 uM
[3] = biological target: Aurora kinase A (Homo sapiens) (UniProt O14965); experiment: Inhibition of Aurora A (unknown origin) at 10 uM
Chain of Aurora kinase A (Homo sapiens) (O14965 whole entry): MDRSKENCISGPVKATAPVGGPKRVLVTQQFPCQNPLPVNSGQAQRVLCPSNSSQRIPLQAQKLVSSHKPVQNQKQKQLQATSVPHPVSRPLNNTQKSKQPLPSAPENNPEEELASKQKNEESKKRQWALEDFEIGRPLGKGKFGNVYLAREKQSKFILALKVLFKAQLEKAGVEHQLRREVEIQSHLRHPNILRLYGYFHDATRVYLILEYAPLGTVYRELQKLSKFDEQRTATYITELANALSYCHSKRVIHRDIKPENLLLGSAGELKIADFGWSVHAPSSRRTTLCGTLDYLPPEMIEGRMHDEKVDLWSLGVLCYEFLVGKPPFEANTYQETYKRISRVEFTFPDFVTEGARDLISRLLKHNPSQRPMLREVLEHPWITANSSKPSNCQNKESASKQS

[4] = biological target: Proto-oncogene tyrosine-protein kinase Src (Homo sapiens) (UniProt P12931); experiment: Inhibition of c-Src (unknown origin) at 10 uM
[5] = biological target: Cyclin-dependent kinase 1/cyclin B1 (Homo sapiens) (UniProt P06493+P14635); experiment: Inhibition of CDK1/cyclin B (unknown origin) at 10 uM; format: protein-complex assay
Chain of Cyclin-dependent kinase 1/cyclin B1 (Homo sapiens) (P06493 whole entry, looked up): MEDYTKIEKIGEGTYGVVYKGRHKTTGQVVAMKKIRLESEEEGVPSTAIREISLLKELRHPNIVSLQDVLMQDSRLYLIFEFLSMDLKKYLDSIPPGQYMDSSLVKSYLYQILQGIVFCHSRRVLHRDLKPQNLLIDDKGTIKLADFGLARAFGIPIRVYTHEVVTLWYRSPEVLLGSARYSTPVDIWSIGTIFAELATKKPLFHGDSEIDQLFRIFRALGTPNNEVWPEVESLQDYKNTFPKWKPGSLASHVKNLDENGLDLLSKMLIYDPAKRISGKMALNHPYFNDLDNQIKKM
Chain of Cyclin-dependent kinase 1/cyclin B1 (Homo sapiens) (P14635 whole entry, looked up): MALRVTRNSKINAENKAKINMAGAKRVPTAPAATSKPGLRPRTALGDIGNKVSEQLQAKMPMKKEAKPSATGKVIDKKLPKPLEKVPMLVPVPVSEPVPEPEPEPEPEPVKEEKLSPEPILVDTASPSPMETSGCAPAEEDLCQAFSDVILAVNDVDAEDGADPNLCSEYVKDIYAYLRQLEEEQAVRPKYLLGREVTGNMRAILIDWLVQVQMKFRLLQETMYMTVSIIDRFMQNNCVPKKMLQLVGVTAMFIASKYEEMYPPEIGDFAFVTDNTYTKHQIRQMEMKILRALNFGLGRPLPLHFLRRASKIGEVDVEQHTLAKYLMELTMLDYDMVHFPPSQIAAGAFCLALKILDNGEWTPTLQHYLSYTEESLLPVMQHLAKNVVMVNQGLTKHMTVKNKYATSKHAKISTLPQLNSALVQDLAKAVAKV

[6] = biological target: CDK2/Cyclin A2 (Homo sapiens) (UniProt P24941+P20248); experiment: Inhibition of CDK2/cyclin A (unknown origin) at 10 uM; format: protein-complex assay
[7] = biological target: Casein kinase I isoform delta (Homo sapiens) (UniProt P48730); experiment: Inhibition of CK1delta (unknown origin) at 10 uM
[8] = biological target: Epidermal growth factor receptor (Homo sapiens) (UniProt P00533); experiment: Inhibition of EGFR (unknown origin) at 10 uM
[9] = biological target: Inhibitor of nuclear factor kappa-B kinase subunit alpha (Homo sapiens) (UniProt O15111); experiment: Inhibition of IKKalpha (unknown origin) at 10 uM
[10] = biological target: Mitogen-activated protein kinase 10 (Homo sapiens) (UniProt P53779); experiment: Inhibition of JNK3 (unknown origin) at 10 uM
Chain of Mitogen-activated protein kinase 10 (Homo sapiens) (P53779 whole entry): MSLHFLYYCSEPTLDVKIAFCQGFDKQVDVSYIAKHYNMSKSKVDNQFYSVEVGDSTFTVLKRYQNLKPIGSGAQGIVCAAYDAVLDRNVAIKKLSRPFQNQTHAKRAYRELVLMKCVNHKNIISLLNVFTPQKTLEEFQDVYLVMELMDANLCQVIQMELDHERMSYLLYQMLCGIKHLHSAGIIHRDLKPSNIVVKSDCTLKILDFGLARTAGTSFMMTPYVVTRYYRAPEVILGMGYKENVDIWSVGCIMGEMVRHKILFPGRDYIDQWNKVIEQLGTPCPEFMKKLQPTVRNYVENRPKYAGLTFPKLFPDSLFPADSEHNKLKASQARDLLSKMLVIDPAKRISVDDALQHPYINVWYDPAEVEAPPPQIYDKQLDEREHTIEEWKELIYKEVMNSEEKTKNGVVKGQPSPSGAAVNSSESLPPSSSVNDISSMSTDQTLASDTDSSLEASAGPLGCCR

[11] = biological target: Tyrosine-protein kinase Lyn (Homo sapiens) (UniProt P07948); experiment: Inhibition of LYN (unknown origin) at 10 uM
[12] = biological target: MAP kinase-interacting serine/threonine-protein kinase 1 (Homo sapiens) (UniProt Q9BUB5); experiment: Inhibition of MNK1 (unknown origin) at 10 uM
Chain of MAP kinase-interacting serine/threonine-protein kinase 1 (Homo sapiens) (Q9BUB5 whole entry, looked up): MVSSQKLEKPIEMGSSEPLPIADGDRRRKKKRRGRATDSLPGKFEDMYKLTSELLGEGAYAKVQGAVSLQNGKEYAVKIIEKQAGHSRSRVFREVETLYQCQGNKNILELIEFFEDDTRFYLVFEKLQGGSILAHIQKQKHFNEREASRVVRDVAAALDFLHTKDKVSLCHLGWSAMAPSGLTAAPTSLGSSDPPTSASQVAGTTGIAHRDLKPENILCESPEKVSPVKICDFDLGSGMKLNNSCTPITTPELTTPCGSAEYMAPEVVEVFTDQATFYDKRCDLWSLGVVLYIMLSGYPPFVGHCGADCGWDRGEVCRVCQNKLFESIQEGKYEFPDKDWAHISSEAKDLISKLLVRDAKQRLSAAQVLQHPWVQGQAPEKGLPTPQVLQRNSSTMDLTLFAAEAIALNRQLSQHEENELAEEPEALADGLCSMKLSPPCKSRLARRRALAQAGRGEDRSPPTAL

[13] = biological target: Ribosomal protein S6 kinase alpha-4 (Homo sapiens) (UniProt O75676); experiment: Inhibition of MSK2 (unknown origin) at 10 uM
Chain of Ribosomal protein S6 kinase alpha-4 (Homo sapiens) (O75676 whole entry, looked up): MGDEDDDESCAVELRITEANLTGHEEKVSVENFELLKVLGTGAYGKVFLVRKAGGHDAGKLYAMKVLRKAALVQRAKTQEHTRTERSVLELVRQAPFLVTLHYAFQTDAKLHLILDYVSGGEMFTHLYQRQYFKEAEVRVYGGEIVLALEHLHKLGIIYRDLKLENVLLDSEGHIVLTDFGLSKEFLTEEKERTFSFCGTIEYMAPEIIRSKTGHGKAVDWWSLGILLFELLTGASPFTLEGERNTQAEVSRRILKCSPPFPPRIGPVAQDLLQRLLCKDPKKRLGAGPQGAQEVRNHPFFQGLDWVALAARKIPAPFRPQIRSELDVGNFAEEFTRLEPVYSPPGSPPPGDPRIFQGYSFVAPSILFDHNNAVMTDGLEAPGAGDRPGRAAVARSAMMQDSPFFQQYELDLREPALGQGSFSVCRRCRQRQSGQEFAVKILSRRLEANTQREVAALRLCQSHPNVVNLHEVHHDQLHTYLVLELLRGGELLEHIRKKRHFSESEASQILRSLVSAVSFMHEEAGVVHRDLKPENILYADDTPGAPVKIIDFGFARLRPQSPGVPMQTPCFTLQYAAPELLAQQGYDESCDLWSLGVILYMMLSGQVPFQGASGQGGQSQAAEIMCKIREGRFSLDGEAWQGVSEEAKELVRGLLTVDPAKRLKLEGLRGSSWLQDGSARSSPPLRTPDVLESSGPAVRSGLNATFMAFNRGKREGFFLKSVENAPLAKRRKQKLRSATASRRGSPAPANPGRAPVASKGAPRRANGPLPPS

[14] = biological target: Mitogen-activated protein kinase 14 (Homo sapiens) (UniProt Q16539); experiment: Inhibition of MAPK14 (unknown origin) at 10 uM
[15] = biological target: Serine/threonine-protein kinase TBK1 (Homo sapiens) (UniProt Q9UHD2); experiment: Inhibition of TBK1 (unknown origin) at 10 uM
Chain of Serine/threonine-protein kinase TBK1 (Homo sapiens) (Q9UHD2 whole entry): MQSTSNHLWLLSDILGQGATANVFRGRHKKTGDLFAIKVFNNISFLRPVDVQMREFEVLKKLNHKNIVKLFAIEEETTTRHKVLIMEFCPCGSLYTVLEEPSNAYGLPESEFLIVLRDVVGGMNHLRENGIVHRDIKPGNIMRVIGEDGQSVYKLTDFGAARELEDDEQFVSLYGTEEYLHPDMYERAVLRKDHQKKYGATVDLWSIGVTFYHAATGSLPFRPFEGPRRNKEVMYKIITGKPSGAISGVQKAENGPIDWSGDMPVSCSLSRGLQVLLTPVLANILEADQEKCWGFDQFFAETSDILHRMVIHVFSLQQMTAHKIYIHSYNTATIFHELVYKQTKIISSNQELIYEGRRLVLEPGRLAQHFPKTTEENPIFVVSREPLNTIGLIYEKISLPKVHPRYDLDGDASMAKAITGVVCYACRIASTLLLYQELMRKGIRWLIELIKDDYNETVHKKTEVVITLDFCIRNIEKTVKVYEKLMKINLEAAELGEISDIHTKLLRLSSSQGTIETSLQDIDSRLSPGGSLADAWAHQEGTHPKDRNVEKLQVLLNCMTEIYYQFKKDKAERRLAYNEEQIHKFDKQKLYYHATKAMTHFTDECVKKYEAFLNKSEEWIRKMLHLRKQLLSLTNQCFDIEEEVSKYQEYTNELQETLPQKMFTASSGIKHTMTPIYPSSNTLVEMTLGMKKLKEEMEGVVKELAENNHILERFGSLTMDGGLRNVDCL

[16] = test system: Mus musculus; experiment: Toxicity in female ICR mouse assessed as average body weight at 2000 mg/kg, po administered on day 1 measured 3 hrs post dose (reference value: 18.9 +/- 0.9 g); format: organism-based; details: in vivo
[17] = test system: Mus musculus; experiment: Toxicity in female ICR mouse assessed as average body weight at 2000 mg/kg, po administered for 10 days measured 3 hrs post last dose (reference value: 18.9 +/- 0.9 g); format: organism-based; details: in vivo
[18] = test system: Mus musculus; experiment: Toxicity in female ICR mouse assessed as average body weight at 2000 mg/kg, po administered for 14 days measured 3 hrs post last dose (reference value: 18.9 +/- 0.9 g); format: organism-based; details: in vivo
[19] = test system: Mus musculus; experiment: Toxicity in male ICR mouse assessed as average body weight at 2000 mg/kg, po administered for 7 days measured 3 hrs post last dose (reference value: 20.3 +/- 0.4 g); format: organism-based; details: in vivo
[20] = test system: Mus musculus; experiment: Toxicity in male ICR mouse assessed as average body weight at 2000 mg/kg, po administered for 10 days measured 3 hrs post last dose (reference value: 20.3 +/- 0.4 g); format: organism-based; details: in vivo
[21] = Clearance in Sprague-Dawley rat at 1 mg/kg, iv after 0.25 to 24 hrs; format: ADME, organism-based; details: in vivo
[22] = test system: Rattus norvegicus; experiment: AUC (0 to infinity) in Sprague-Dawley rat at 2 mg/kg, po after 0.25 to 24 hrs; format: ADME, organism-based; set-up: dose 2 mg/kg, time infinity, route oral; details: in vivo
[23] = Cmax in Sprague-Dawley rat at 2 mg/kg, po after 0.25 to 24 hrs; format: ADME, organism-based; set-up: dose 2 mg/kg, route oral; details: in vivo
[24] = test system: Mus musculus; experiment: Toxicity in ICR mouse assessed as mortality at 2000 mg/kg, po administered for 14 days measured on day 15; format: organism-based; details: in vivo, 336 h
[25] = test system: Mus musculus; experiment: Toxicity in ICR mouse assessed as change in organ anatomy at 2000 mg/kg, po administered for 14 days measured on day 15; format: organism-based; details: in vivo, 336 h

Chain of Tyrosine-protein kinase ABL1 (Homo sapiens) (P00519 whole entry): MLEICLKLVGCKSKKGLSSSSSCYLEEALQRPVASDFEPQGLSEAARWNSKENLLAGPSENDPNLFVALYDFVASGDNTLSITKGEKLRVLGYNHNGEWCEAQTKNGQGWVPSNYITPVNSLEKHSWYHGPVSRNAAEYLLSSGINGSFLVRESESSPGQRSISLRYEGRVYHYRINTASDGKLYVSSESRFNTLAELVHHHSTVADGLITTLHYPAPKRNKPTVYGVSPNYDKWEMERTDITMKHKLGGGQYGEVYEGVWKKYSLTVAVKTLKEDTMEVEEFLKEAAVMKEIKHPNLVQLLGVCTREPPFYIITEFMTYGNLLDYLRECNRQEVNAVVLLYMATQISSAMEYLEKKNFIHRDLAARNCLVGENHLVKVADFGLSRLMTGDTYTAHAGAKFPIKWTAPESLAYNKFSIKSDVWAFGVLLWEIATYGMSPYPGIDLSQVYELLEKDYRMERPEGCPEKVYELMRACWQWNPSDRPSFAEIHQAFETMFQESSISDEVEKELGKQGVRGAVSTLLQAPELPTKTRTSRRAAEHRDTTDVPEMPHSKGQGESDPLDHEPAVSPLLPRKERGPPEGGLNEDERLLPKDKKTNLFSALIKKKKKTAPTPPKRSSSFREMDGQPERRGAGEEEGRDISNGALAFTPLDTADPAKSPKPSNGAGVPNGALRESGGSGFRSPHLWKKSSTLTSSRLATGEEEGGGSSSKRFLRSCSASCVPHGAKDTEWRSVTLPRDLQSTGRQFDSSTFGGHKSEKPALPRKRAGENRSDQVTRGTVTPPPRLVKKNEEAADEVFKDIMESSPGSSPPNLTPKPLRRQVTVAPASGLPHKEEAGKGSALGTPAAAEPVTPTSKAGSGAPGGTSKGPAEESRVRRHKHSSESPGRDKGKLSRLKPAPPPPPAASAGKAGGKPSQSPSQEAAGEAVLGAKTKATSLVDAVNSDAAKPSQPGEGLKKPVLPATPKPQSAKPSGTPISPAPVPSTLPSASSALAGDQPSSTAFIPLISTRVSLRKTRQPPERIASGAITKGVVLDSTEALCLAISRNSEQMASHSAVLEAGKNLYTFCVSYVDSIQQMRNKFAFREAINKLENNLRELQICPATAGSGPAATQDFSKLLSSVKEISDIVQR

CN1CCN(CCCOc2ccc(N3C(=O)/C(=C/c4ccc(Oc5ccc(F)cc5)cc4)SC3=S)cc2)CC1
remaining at 2 h [1]: 87%
inhibition [2]: 20%
inhibition [3]: 0%
inhibition [4]: 14%
inhibition [5]: 3.1%
inhibition [6]: 6.4%
inhibition [7]: 0%
inhibition [8]: 0%
inhibition [9]: 0%
inhibition [10]: 0%
inhibition [11]: 27.8%
inhibition [12]: 0%
inhibition [13]: 0%
inhibition [14]: 14.8%
inhibition [15]: 0%
Activity [16]: 19.7 g
Activity [17]: 31.3 g
Activity [18]: 35.1 g
Activity [19]: 26.2 g
Activity [20]: 27.4 g
clearance [21]: 98 mL/min/kg
AUC [22]: 79.4 ng·h/mL
Cmax [23]: 8.6 ng/mL
Activity [24]: Non-toxic
Activity [25]: Non-toxic
